In PMC4828713, “New potential binding determinant for hERG channel inhibitors” (Scientific Reports, 2016):

Tests used:
[1] = target: wild type hERG (WT) channels (Homo sapiens, UniProt Q12809); conditions: pH 7.4
From the text: (§1) For hERG measurements, the oocytes were clamped at a holding potential of −100 mV and depolarized to +20 mV allowing activation and inactivation. […] Channel block was estimated from tail current inhibition.

Y652A-hERG = Y652A-hERG (Homo sapiens, UniProt Q12809, Y652A); conditions: pH 7.4
From the text: as §1

SMILES: O=C(CCCN1CCC(O)(c2ccc(Cl)cc2)CC1)c1ccc(F)cc1 [Haloperidol, haloperidol]
- WT nH (hill coefficient) [1]: 1.3 ± 0.1
- Y652A-hERG nH (hill coefficient) (Y652A-hERG): 1 ± 0.04
- Y652A-hERG ∆IC50 (Y652A-hERG): 31.4
